Data on one substance can be found in patent US20240317762A1, “PHTHALAZINONE-BASED PARP-1 INHIBITORS” (Oregon Health & Science University, priority 2021, published 2024).

In assay [1] the test system is HEK 293 PARP-1 KO cells. Briefly: cell proliferation (MTT) assay in PARP-1 KO cells. The conditions noted are these: PARP-1 KO vs control HEK 293 cells, MTT 72 h. The class given is cell-based, human. The text has this: (§1) Error bars represent SEM. […] Error bars represent SEM. […] Error bars represent SEM.
Assay [2] deals with PARP-1 (Homo sapiens, UniProt P09874). The experiment in a line: in-cell competition labeling with ad-olaparib photoaffinity probe. The class given is cell-based. On the procedure:
Photocrosslinking in intact cells. HEK293 CRL and PARP-1 KO cells were grown in DMEM for 2 days in a 60 mm dish for 2 days to reach 80-90% confluency. […] Cells were then washed once with PBS, covered with PBS and irradiated for 5 min in the RPR-100 Photochemical Reactor (Rayonet) equipped with 350 nm lamps at 4° C. Cells were lysed on ice in 1% SDS, 1% Triton X-100 and EDTA-free protease inhibitor cocktail (Roche) in PBS for 10 min and then probe sonicated to shear the nuclear DNA. Protein concentration was determined with Bio-Rad Protein assay. The lysate was diluted in PBS to a final Click reaction concentration of 2 mg/mL.
Click Chemistry. Reaction was started by mixing 30 μL of each sample with 15 μL of PBS based 3× Click reaction mixture containing (final concentrations): 100 μM Tris[(1-benzyl-1H-1,2,3triazol-4-yl)methyl]amine (TBTA, Click Chemistry Tools), 1 mM CuSO4, 40 μM tetramethylrhodamine (TAMRA)-azide (Click Chemistry Tools), 1 mM Tris(2-carboxyethyl)phosphine hydrochloride (TCEP, Thermo Fisher) and 15% tert-Butyl alcohol, and let to procced for 1 h at RT while gently shaking. Reactions were stopped by adding 4× Laemmli sample buffer and boiling at 95° C. for 5 min.
In gel fluorescence, western blotting and quantification. Samples were loaded to 8 or 10% SDS-polyacrylamide gels and run until the dye front left the gel. First, in-gel fluorescence was detected with ChemiDoc XRS+ (Biorad) using Rhodamine filter and then the proteins were transferred on nitrocellulose membrane, the membrane was blocked and probed for PARP-1 (1:3000) and alpha-tubulin (1:1000). Both antibodies were from cell signaling. Band intensities we quantified with ImageJ.
FIGS. 6A-6E. […] 0.1 μM ad-olaparib (chemical structure indicated in panel a) was added to the cells for 1 hour before undergoing a UV treatment for 5 minutes in cold PBS. Cells were lysed and sonicated in PBS (1% Triton X-100+1% SDS), clicked with TAMRA-azide and run out on SDS-PAGE. The gel was imaged for TAMRA and probed for PARP-1 (Bethyl Laboratories), and alpha-tubulin (X). FIGS. 6B, 6D) Quantification of western blot images. TAMRA or ADPr values are normalized to PARP-1 within each replicate and plotted as percentage compared to DMSO. Error bars indicate SEM (n=3-4). Statistical significance of off-rate calculated via multiple t-tests (p<0.05). […] Cells were subsequently treated with PARGi (10 μM) for 30 minutes, lysed using RIPA buffer, run out on SDS-PAGE, and probed for ADPr (Cell Signaling) and PARP-1 (Bethyl Laboratories). FIG. 6E) ES-8 cells were treated with indicated concentration of inhibitors for 72 hours before measuring cell viability using the CellTiter-Glo kit (Promega G7573). IC50 values were calculated using R statistical software.

Assay [3] concerns HEK 293T cells. The experiment in a line: DNA synthesis assay (EdU incorporation). The class given is cell-based, human. The conditions noted are these: 1 μM, 18 hours, then 10 μM EdU 1.5 hours. On the procedure:
HEK 293T cells were seeded onto poly-d-lysine treated glass coverslips. […] After incubation, cells were treated with 10 μM EdU (5-ethynyl-2′-deoxyuridine) for 1.5 hours and subsequently fixed with 4% Sucrose/4% Paraformaldehyde in PBS for 15 minutes at RT. Cells were washed 2× with 3% BSA in PBS and permeabilized with 0.3% Triton X-100 in PBS for 20 minutes at RT. After two additional 3% BSA in PBS washes, coverslips were incubated with 500 μl Click-iT reaction cocktail [1× Click-iT reaction buffer, 2 mM CuSO4, 5 μM TAMRA Azide, Reaction buffer additive] for 30 minutes at room temperature (RT) protected from the light. Cells were washed once more with 3% BSA in PBS and twice more with 1×PBS before being mounted using ProLong Gold antifade reagent with DAPI (Invitrogen). All immunofluorescence images were taken on a Zeiss ApoTome2 on Axiolmager and analyzed using Zeiss software. Mean intensity of the TAMRA signal was measured after imposing DAPI masks over the nucleus of each cell. All cells within a 20× image, was analyzed (˜3000 cells/condition).
as §1

Chain of PARP-1 (P09874 whole entry): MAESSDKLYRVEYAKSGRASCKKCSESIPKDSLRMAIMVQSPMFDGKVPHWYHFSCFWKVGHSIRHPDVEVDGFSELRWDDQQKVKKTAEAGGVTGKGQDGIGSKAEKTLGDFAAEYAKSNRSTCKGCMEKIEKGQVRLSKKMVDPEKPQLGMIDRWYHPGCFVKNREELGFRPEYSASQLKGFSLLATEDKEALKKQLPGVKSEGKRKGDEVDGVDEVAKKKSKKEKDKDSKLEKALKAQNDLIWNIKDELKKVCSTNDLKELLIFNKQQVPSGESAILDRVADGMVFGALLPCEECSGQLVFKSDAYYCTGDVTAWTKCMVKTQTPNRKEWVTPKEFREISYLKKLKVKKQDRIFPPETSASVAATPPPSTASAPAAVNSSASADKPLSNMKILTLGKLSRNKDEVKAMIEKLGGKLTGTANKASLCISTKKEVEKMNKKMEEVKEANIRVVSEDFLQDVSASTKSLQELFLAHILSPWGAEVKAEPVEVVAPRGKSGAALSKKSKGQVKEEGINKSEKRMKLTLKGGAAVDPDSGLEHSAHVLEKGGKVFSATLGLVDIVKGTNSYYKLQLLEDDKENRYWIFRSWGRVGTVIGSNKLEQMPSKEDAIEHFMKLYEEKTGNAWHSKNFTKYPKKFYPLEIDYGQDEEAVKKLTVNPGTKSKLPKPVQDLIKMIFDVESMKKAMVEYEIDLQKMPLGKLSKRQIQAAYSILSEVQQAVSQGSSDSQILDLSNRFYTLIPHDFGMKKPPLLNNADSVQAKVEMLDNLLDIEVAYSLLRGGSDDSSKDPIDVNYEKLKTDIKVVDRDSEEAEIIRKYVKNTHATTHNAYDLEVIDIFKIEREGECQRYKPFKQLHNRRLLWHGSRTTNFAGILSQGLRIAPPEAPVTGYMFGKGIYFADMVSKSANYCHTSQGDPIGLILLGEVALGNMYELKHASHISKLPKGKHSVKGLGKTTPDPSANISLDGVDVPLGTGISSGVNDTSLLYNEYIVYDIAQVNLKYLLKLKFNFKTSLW

Take “(S)-4-(difluoro(3-(6-methyl-3-(trifluoromethyl)-5,6,7,8-tetrahydro-[1,2,4]triazolo[4,3-a]pyrazine-7-carbonyl)phenyl)methyl)phthalazin-1(2H)-one [AZ0108]”: the “increase in the EC50 value on cell growth by KO of PARP-1” value in assay [1] is recorded as 43 fold. For the same substance, in assay [2] (10 μM inhibitor, 0.1 μM ad-olaparib), the “labeling of PARP-1 by ad-olaparib after pre-treatment” value is given as “substantially blocked”. The “recovery of labeling of PARP-1 by ad-olaparib after washout” value in assay [2] (washout (3 h)) was “more than 2 fold”. The “block of EdU incorporation” value in assay [3] was determined as 65%.
